Laboratory results: patent publication US20190298743A1, “TREATMENT OF PAIN” (Takeda Pharmaceutical Company Limited, priority 2016, published 2019)

Key:
PAR2 [1] = assay: BRET receptor trafficking, PAR2-RLuc8 with early endosomal marker Rab5a-venus in HEK293 cells; format: cell-based
Procedure: (§1) Bret studies of receptor trafficking were conducted to quantify PAR2 internalisation (RIT-venus) and trafficking to early endosomes (Rab5a-venus) upon stimulation with different agonists.
(§2) After achieving ˜50% confluency within 10 cm dishes HEK293 cells were transiently transfected with 1 μg PAR2-RLuc8 and 4 μg of either RIT-venus or Rab5a-venus using PEI as a transfection agent. 24 hours post transfection, cells were seeded into poly-D-lysine coated 96-well isoplates. […] When used endocytic inhibitors were diluted in 1×HBSS+1% dimethyl sulfoxide (DMSO). Following the replacement of culture media cells were allowed to equilibrate at 37° C. for 30 minutes before the addition of colenterazine H [5 μM]. After a further 5 minute incubation BRET was assessed using a LUMIstar Omega microplate reader (BMG LabTech, Offenburg, Germany), with luminescence being read at 535 nm and 475 nm. A 4 minute baseline was obtained before the addition of vehicle (1×HBSS+/−1% DMSO) or protease, measurements were then continued for a further 30 minutes. BRET ratios were calculated using LUMIstar MARS analysis software and then corrected to baseline and vehicle treatments in Microsoft Excel 2013.

PAR2 [2] = assay: BRET proximity of PAR2 to KRas (plasma membrane) and Rab5a (endosomes) in HEK cells; format: cell-based; details: HEK cells
Procedure: (§3) The contribution of endocytosis of protease-activated receptor-2 (PAR2) was evaluated for generation of signals in subcellular compartments that mediate protease-evoked sensitization of nociceptors. Bioluminescence resonance energy transfer (BRET) was used to assess the proximity of PAR2 to resident proteins of the plasma membrane (KRas) and endosomes (Rab5a) in HEK cells. […] Förster resonance energy transfer (FRET) biosensors targeted to the plasma membrane, cytosol or nucleus were used to examine the capacity of proteases to generate signals in subcellular compartments of HEK cells and rat dorsal root ganglia neurons. […] Dynamin inhibitor Dyngo4a, Clathrin inhibitor Pitstop2 and dominant negative β-arrestin inhibited trypsin-evoked endocytosis of PAR2, and prevented trypsin-evoked activation of cytosolic cAMP and PKC and nuclear ERK. […] To examine the link between PAR2 endocytosis, compartmentalized signaling and nociceptor sensitization, perforated patch clamp recordings were made from mouse dorsal root ganglia neurons. […] The effects of proteases on excitability were blocked by the PAR2 antagonist GB88. Thus, canonical and biased proteases sensitize nociceptors by distinct mechanisms. For canonical agonists, PAR2 endocytosis generates compartmentalized signals subcellular compartments that underlie sustained excitability of nociceptive neurons. Inhibiting endosomal signaling of PAR2 may provide a novel method of treating protease-evoked pain.

PAR2 [3] = assay: BRET receptor trafficking, PAR2-RLuc8 with plasma membrane marker RIT-venus in HEK293 cells; format: cell-based
Procedure: as §1, §2

DRG neurons = assay: Perforated patch-clamp excitability (rheobase) of isolated DRG neurons; format: cell-based, mice; details: 0 min and 30 min after washing
Procedure: To assess the effects of proteases on excitability of nociceptors, DRG neurons were preincubated with trypsin, cathepsin S, elastase or vehicle (control), washed, and rheobase and action potential discharge at a current of twice rheobase were measured at 0 min or 30 min after washing.
DRG (T9-T13) from C57BL/6 mice were digested by incubation in collagenase (1 mg/ml, Worthington Biochemical, Lakewood, N.J.) and dispase (4 mg/ml, Roche Life Science, Indianapolis, Ind.) for 10 min at 37° C., and were dispersed by trituration with a fire-polished Pasteur pipette. Cells were plated onto coverslips coated with laminin (0.017 mg/ml) and poly-D-lysine (2 mg/ml) in 24-well plates. Neurons were cultured in F12 medium (Cat N668, Lot RNBD5333, Sigma-Aldrich, St Louis, Mo. USA) containing 10% fetal calf serum, with penicillin and streptomycin and maintained at 37° C. in a humidified atmosphere of 95% air and 5% CO2 until retrieval (16 h) for electrophysiological studies.
Neuronal excitability was assessed by perforated patch-clamp recordings with amphotericin B (240 μg/ml) from small diameter neurons (<30 pF capacitance) in current clamp mode at room temperature. Only neurons with resting membrane potentials more negative than −40 mV were analyzed. Changes in excitability were quantified by measuring rheobase (minimum current to fire action potential) and numbers of action potentials discharged at twice rheobase. Recordings were made using Axopatch 200B amplifiers, digitized by Digidata 1322A and stored and processed using pClamp 10.1 software (Molecular Devices, Sunnyvale, Calif.). The recording chamber was continuously perfused with external solution at 2 ml/min. External solution was (mM): 140 NaCl, 5 KCl, 10 HEPES, 10 D-glucose, 1 MgCl2, 2 CaCl2; pH to 7.4 with 3 M NaOH. Pipette solution was (mM): 110 K-gluconate, 30 KCl, 10 HEPES, 1 MgCl2, 2 CaCl2; pH 7.25 with 1 M KOH.
DRG neurons were pre-incubated with vehicle (control) or proteases using conditions that we have reported to cause robust hyperexcitability: trypsin (50 nM, 10 min), elastase (10 U/ml, 390 nM, 30 min), Cat-S (500 nM, 60 min). Neurons were then washed and maintained in protease-free F12 medium. Neuronal excitability was assessed 0 or 30 min after washing. In some experiments, neurons were incubated with vehicle (0.3% DMSO), Dyngo4a (30 μM) or PitStop2 (15 μM) for 30 min before and during incubation with proteases.
Results are expressed as mean±SE. Two way ANOVA and post hoc Tukey's tests were used to analyze the data.

PAR2 [4] = assay: Whole population FRET with nuclear ERK sensor NucEKAR in HEK293 cells; format: cell-based
Procedure: (§4) Förster Resonance Energy Transfer (FRET) was used to characterise PAR2 mediated ERK within different subcellular compartments upon stimulation with different agonists. The assays were repeated after employing pharmacological and genetic approaches shown to abolish receptor internalisation to assess the role of internalisation in generating compartmentalised signals.
After achieving ˜50% confluency within 10 cm dishes HEK293 cells were transfected with 2-5 μg of PAR2 with N-terminal HA epitope tag (PAR2-HA) and 2-5 μg of desired FRET biosensor, using PEI as a transfection agent. 24 hours after transfection, cells were seeded into poly-D-lysine coated black 96 well isoplates. FRET was assessed 48 hours after cell plating, following overnight serum restriction. […] When used endocytic inhibitors were diluted in 1×HBSS+1% dimethyl sulfoxide (DMSO). Following the replacement of culture media cells were allowed to equilibrate at 37° C. for 30 minutes. FRET was then determined using a PHERAstar FS microplate reader (BMG LabTech, Offenburg, Germany), cells were sequentially excited at 430 nm with emissions being read at 550 nm and 490 nm. A 4 minute baseline was obtained before the addition of vehicle (1×HBSS+/−1% DMSO), protease or 1 μM PDBu (serving as a positive control). […] FRET ratios were then calculated and corrected to baseline and vehicle treatments in Microsoft Excel 2013.

PAR2 [5] = assay: FRET biosensors for compartmentalised cAMP, PKC and ERK signals in HEK cells and rat dorsal root ganglia neurons; format: cell-based
Procedure: as §3

[6] = Protease-evoked paw edema, hindpaw thickness; format: in vivo, mice; details: ipsilateral paw
Procedure: (§5) Immediately before experiments the mice were acclimatized to the experimental apparatus, room and investigator for 1-2 h on 2 successive days. Mechanical nociceptive responses were evaluated by paw withdrawal to stimulation of the plantar surface of the hind-paw with calibrated von Frey filaments. von Frey scores were measured in triplicate to establish a baseline for each animal on the day before experiments. Paw edema was estimated by measuring the thickness of the hindpaw using digital calipers before and after treatments. Mice were […] with 5% isoflurane for intraplantar injections. Dyngo4a (50 μM), PitStop2 (50 μM) or vehicle (0.2% DMSO in 0.9% NaCl) (all 10 μl) were injected into the left hindpaw. After 30 min, trypsin (10 nM), Cat-S (2.5 μM) or elastase (30 U) (all 10 μl) were injected into the same left hindpaw. von Frey scores (left and right paws) and paw thickness (left paw) were measured hourly for up to 4 h after protease injection. Investigators were blinded to the test agents.

[7] = Protease-evoked mechanical hyperalgesia, von Frey paw withdrawal; format: in vivo, mice; details: ipsilateral paw
Procedure: as §5

PAR2 [8] = assay: Whole population FRET with cytosolic ERK sensor CytoEKAR in HEK293 cells; format: cell-based
Procedure: as §4
After achieving ˜50% confluency within 10 cm dishes HEK293 cells were transfected with 2-5 μg of PAR2 with N-terminal HA epitope tag (PAR2-HA) and 2-5 μg of desired FRET biosensor, using PEI as a transfection agent. 24 hours after transfection, cells were seeded into poly-D-lysine coated black 96 well isoplates. FRET was assessed 48 hours after cell plating, following overnight serum restriction. […] When used endocytic inhibitors were diluted in 1×HBSS+1% dimethyl sulfoxide (DMSO). Following the replacement of culture media cells were allowed to equilibrate at 37° C. for 30 minutes. FRET was then determined using a PHERAstar FS microplate reader (BMG LabTech, Offenburg, Germany), cells were sequentially excited at 430 nm with emissions being read at 550 nm and 490 nm. A 4 minute baseline was obtained before the addition of vehicle (1×HBSS+/−1% DMSO), protease or 1 μM PDBu (serving as a positive control). Measurements were then continued every minute for a further 30 minutes. FRET ratios were then calculated and corrected to baseline and vehicle treatments in Microsoft Excel 2013.

Question: What does the source list for trypsin?
Answer: EC50 (PAR2 [1]; Rab5a-venus, CRC from AUC data, read-out: EC50 of trypsin induced internalisation of PAR2, early endosomal marker): ~2.8 nM; Change in BRET between PAR2 and early endosomal marker upon agonist stimulation (PAR2 [1]; trypsin 10 nM): increase in BRET; PAR2 endocytosis induced by agonist (PAR2 [2]): increases BRET between PAR2 and Rab5a and decreases BRET between PAR2 and KRas; EC50 (PAR2 [3]; RIT-venus, CRC from AUC data, read-out: EC50 of trypsin induced internalisation of PAR2, plasma membrane marker): ~2.8 nM; Change in BRET between PAR2 and plasma membrane marker upon agonist stimulation (PAR2 [3]; trypsin 10 nM): time dependent decrease in BRET; Effect of protease on excitability (rheobase) of DRG neurons (DRG neurons): immediate increase in excitability; Ability of agonist to produce ERK signals within the nucleus (PAR2 [4]): able to produce ERK signals; Signals generated by protease in subcellular compartments (PAR2 [5]): activated cAMP and protein kinase C (PKC) at the plasma membrane and in the cytosol, and extracellular signal regulate kinase (ERK) in the nucleus and cytosol; Edema after intraplantar injection of protease [6]: edema of the ipsilateral paw that was maximal after 4 h; Mechanical hyperalgesia after intraplantar injection of protease [7]: caused mechanical hyperalgesia of the ipsilateral paw that was sustained for at least 4 h; Ability of agonist to produce ERK signals within the cytoplasm (PAR2 [8]): able to produce ERK signals
